According to ChEMBL document CHEMBL4028802, “DILIrank: the largest reference drug list ranked by the risk for developing drug-induced liver injury in humans” (Drug Discov Today, 2016):

Key:
Homo sapiens [1] = species on record: Homo sapiens; experiment: Liver toxicity in human assessed as induction of drug-induced liver injury by measuring verified drug-induced liver injury concern status
Homo sapiens [2] = species on record: Homo sapiens; experiment: Liver toxicity in human assessed as induction of drug-induced liver injury by measuring severity class index
Throughout, for DILI severity class: key of the grades not given here.

Row | Compound | DILI_Concern (Homo sapiens [1]) | DILI_severity_class (Homo sapiens [2])
1 | Cc1nnc(C(C)C)n1[C@@H]1C[C@H]2CC[C@@H](C1)N2CC[C@H](NC(=O)C1CCC(F)(F)CC1)c1ccccc1 [MARAVIROC] | Most-Dili-Concern | 3
2 | CC(NN)c1ccccc1 (stereo unspecified) [MEBANAZINE] | Most-Dili-Concern | 8
3 | COC(=O)Nc1nc2ccc(C(=O)c3ccccc3)cc2[nH]1 [MEBENDAZOLE] | Less-Dili-Concern | 3
4 | CNC1(C)C2CCC(C2)C1(C)C (stereo unspecified) [MECAMYLAMINE] | No-Dili-Concern | 0
5 | Cc1cccc(CN2CCN(C(c3ccccc3)c3ccc(Cl)cc3)CC2)c1 (stereo unspecified) [MECLIZINE] | No-Dili-Concern | 0
6 | Cc1ccc(Cl)c(Nc2ccccc2C(=O)O)c1Cl [MECLOFENAMIC ACID] | Ambiguous-Dili-Concern | 3
7 | Cc1cccc(Nc2ccccc2C(=O)O)c1C [MEFENAMIC ACID] | Most-Dili-Concern | 8
8 | Cc1cnc(NC(=O)C2=C(O)c3ccccc3S(=O)(=O)N2C)s1 [MELOXICAM] | Less-Dili-Concern | 3
9 | CC12CC3CC(C)(C1)CC(N)(C3)C2 [MEMANTINE] | Less-Dili-Concern | 7
10 | CN1CCCC(CN2c3ccccc3Sc3ccccc32)C1 (stereo unspecified) [MEPAZINE] | Most-Dili-Concern | 8
11 | C[N+]1(C)CCCC(OC(=O)C(O)(c2ccccc2)c2ccccc2)C1 (stereo unspecified) [MEPENZOLATE] | No-Dili-Concern | 0
12 | CCOC(=O)C1(c2ccccc2)CCN(C)CC1 [MEPERIDINE] | No-Dili-Concern | 0
13 | CCC1(c2ccccc2)NC(=O)N(C)C1=O (stereo unspecified) [MEPHENYTOIN] | Ambiguous-Dili-Concern | 5
14 | Cc1cccc(C)c1NC(=O)C1CCCCN1C (stereo unspecified) [MEPIVACAINE] | No-Dili-Concern | 0
15 | CCCC(C)(COC(N)=O)COC(N)=O [MEPROBAMATE] | No-Dili-Concern | 0
16 | Sc1ncnc2nc[nH]c12 [MERCAPTOPURINE ANHYDROUS] | Most-Dili-Concern | 8
17 | C[C@@H](O)[C@H]1C(=O)N2C(C(=O)O)=C(S[C@@H]3CN[C@H](C(=O)N(C)C)C3)[C@H](C)[C@H]12 [MEROPENEM] | Less-Dili-Concern | 3
18 | Nc1ccc(O)c(C(=O)O)c1 [MESALAMINE] | Less-Dili-Concern | 7
19 | O=S(=O)([O-])CCS.[Na+] [MESNA] | Ambiguous-Dili-Concern | 3
20 | CN1CCCCC1CCN1c2ccccc2Sc2ccc([S+](C)[O-])cc21 (stereo unspecified) [MESORIDAZINE] | Ambiguous-Dili-Concern | 5
21 | CC(C)NCC(O)c1cc(O)cc(O)c1 (stereo unspecified) [METAPROTERENOL] | No-Dili-Concern | 0
22 | Cc1cc(C)cc(OCC2CNC(=O)O2)c1 (stereo unspecified) [METAXALONE] | Less-Dili-Concern | 5
23 | CN(C)C(=N)N=C(N)N [METFORMIN] | Less-Dili-Concern | 0
24 | CCC(=O)C(CC(C)N(C)C)(c1ccccc1)c1ccccc1 (stereo unspecified) [METHADONE] | Ambiguous-Dili-Concern | 3
25 | CN[C@@H](C)Cc1ccccc1 [METHAMPHETAMINE] | No-Dili-Concern | 0
26 | CC(=O)/N=c1/sc(S(N)(=O)=O)nn1C [METHAZOLAMIDE] | Less-Dili-Concern | 7
27 | C1N2CN3CN1CN(C2)C3.O=C(O)CNC(=O)c1ccccc1 [METHENAMINE HIPPURATE] | Ambiguous-Dili-Concern | 3
28 | CSCC[C@H](N)C(=O)O [METHIONINE] | No-Dili-Concern | 0
